Tested on: primary mouse splenic B-cells (B220+ IgM+)
Experiment: radiosensitization of primary mouse B-cells by DIDS (Trypan blue dye exclusion)
Format: cell-based
Conditions: 2.5 Gy gamma irradiation combined with DIDS, starting at 50 micromolar, 24 hours after irradiation
Description: Primary mouse splenic B-cells were isolated from normal, wild-type C57BL/6J mice as described in Example 1 and sorted with magnetic beads (Miltenyi) to enrich B220+ IgM+ B-cells. Purified B-cells were cultured in complete RPMI-1640 medium with 10% FBS with 0, 50, 100, or 150 micromolar DIDS. Cells were then subjected to either 0 (FIG. 14, filled circles) or 2.5 Gy (=250 rads; FIG. 14, open circles) of gamma irradiation in a Cs137 irradiator. Cell viability was subsequently scored for each condition and plotted relative to the no DIDS condition by manual cytometry using a hemacytometer and Trypan blue dye exclusion 24 hours after irradiation. The fraction of viable cells is reported normalized to the corresponding 0 μM DIDS condition. Error bars represent the standard error of the mean (S.E.M) from three independent experiments.

O=S(=O)([O-])c1cc(N=C=S)ccc1/C=C/c1ccc(N=C=S)cc1S(=O)(=O)[O-].[Na+].[Na+] [DIDS, 4,4′diisothiocyanostilbene-2,2′-disulfonic acid] was tested, and the “fraction of viable cells” value was “reduces viability significantly”.

Reference: patent publication US10207988B2, “Methods and compositions for treatment of cancer and autoimmune disease” (THE JACKSON LABORATORY, priority 2011, dated 2019)
